# Experimental data as given in US10624895B2, “Methods of sensitizing a patient with glioma to a therapeutic agent by administering small hairpin RNA targeting PDZ-RHOGEF” (THE TRANSLATIONAL GENOMICS RESEARCH INSTITUTE, priority 2016, dated 2020).
# Experiments:
# Type in all cases: cell-based, human
# TNFR1 = test: Western blot of TNFR1 expression after PPF treatment; conditions: T98G, GBM10, GBM43 cells, 5 μM PPF, 24 hours
# Description: (§1) FIG. 24A—a Western blot analysis of TROY expression in T98G cells. Cells were treated with PPF at indicated concentrations for 6 hrs, lysed, and cell lysates immunoblotted with anti-TROY antibody. Immunoblotting of α-Tubulin in cell lysates is included as a loading control. FIG. 24B—Western blot analysis of TROY expression in T98G, GBM43, and GBM10 cells. Cells were treated with PPF at indicated concentrations for 24 hrs, lysed, and cell lysates immunoblotted with anti-TROY and α-Tubulin antibodies. FIG. 24C—Western Blot analysis of TROY expression in GBM10 and GBM43 primary glioma cells. Cells were treated with 5 μM PPF, lysed at the indicated time-points, and the lysates immunoblotted with an anti-TROY antibody. Immunoblotting of β-Actin in cell lysates is included as a loading control. FIG. […]—Western Blot analysis of T98G, GBM10 and GBM43 glioma cells treated with 5 μM PPF for 24 hours. […]
# (§2) Referring now to FIGS. 24A, 24B, 24C, and 24D: The inventors investigated if PPF could be utilized pharmacologically to decrease TROY expression in GBM cells. […] Cells were treated with increasing concentration of PPF, 1 to 20 μM lysed, and TROY expression assessed by immunobloting. […] Protein concentrations were determined using the BCA Assay (Pierce). […] Protein bands were detected using SuperSignal® Chemiluminescent Substrate (Pierce) with a UVP BioSpectrum 500 Imaging System.
# EGFR = test: Western blot of EGFR expression after PPF treatment; conditions: T98G, GBM10, GBM43 cells, 5 μM PPF, 24 hours
# Description: as §1, §2
# [1] = test system: T98G, GBM10, and GBM43 cells; test: CellTiterGlo cytotoxicity assay; conditions: 0.5 to 20 μM PPF, 72 hours
# Description: FIG. 25A—T98G, GBM43, and GBM10 cells were incubated with increasing concentrations of PPF (0, 5, 50, and 500 After 0, 48, 96 and 144 hours of treatment, cell were trypsinized and counted using an automated cell counter. FIG. 25B—GBM43, GBM10, and T98G glioma cells were treated with increasing doses of PPF (0.5, 1, 5, 10, and 20 μM) in triplicate. The CellTiterGlo® (Promega) reagent was used to measure survival. Raw values were normalized on a plate-by-plate basis such that 100% cell viability was equivalent to the mean of vehicle wells and 0% cell viability was equivalent to the mean of the MG132 positive control. The normalized data was used to assess viability of glioma cells after PPF treatment.
# Referring now to FIGS. 25A and 25B: To determine if PPF influences glioma cell proliferation, the inventors treated T98G, GBM10, and GBM43 cells with increasing concentrations of PPF and evaluated cell proliferation over the course of 144 hours. Briefly, 1.25×10^5 cells were seeded (n=3) in 12-well plates in 1 mL of DMEM supplemented with 10% FBS and allowed to attach at 37° C. for 16 hrs. […] After 0, 48, 96 and 144 hours of treatment, the cells were trypsinized and counted using the automated cell counter. […] Subsequently, 100 μL of CellTiterGlo® reagent was added to each well and luminescence was measured using Envision Reader. […]
# cleaved PARP = test: Immunoblot for cleaved PARP (TMZ-induced apoptosis); conditions: T98G cells, PPF (5 μM) in combination with TMZ (250 μM), compared to TMZ alone
# Description: FIGS. 26A, 26B, and 26C depict that PPF sensitizes GBM cells to TMZ and radiotherapy. FIG. 26A—A clonogenic assay was used to assess T98G and GBM43 cells survival after TMZ and radiation treatment. Cells were pre-treated with 5 μM PPF for 24 hours, and then either treated with 250 μM TMZ for 24 hours or exposed to 2 Gy radiation. Graph depicts the surviving fraction in the treated cells compared to vehicle (VC) treated or non-treated (NT) cells, **p<0.01. FIG. 26B—T98G glioma cells were treated with vehicle, PPF (5 μM) TMZ (250 μM) and PPF in combination with TMZ. TMZ-induced apoptosis was assayed by immunoblot analysis of cell lysates with an antibody to cleaved PARP. Immunoblotting for α-Tubulin was included as a loading control. FIG. 26C—T98G, GBM10, and GBM43 cells were treated with PPF ([…], and then immunoblotted to assess the activation of AKT and NF-κB. Immunoblotting for β-Actin is included as a loading control.
# Referring now to FIGS. 26A, 26B, and 26C: Knockdown of TROY expression with shRNA decreases TMZ resistance in GBM cells in vitro (See Reference 42). […] Following combination therapy, cells were trypsinized, counted, and plated in a 6-well culture dish at densities of 100, 250, and 500 cells per well in triplicate. Cells were incubated for 12 days then fixed, stained with 0.5% crystal violet solution, and counted manually by blinded observers. […]
compound,measurement,setting,value
"CCCn1cnc2c1c(=O)n(CCCCC(C)=O)c(=O)n2C [PPF, 3-methyl-1-(5-oxohexyl)-7-propyl-3,7-dihydro-1H-purine-2,6-dione]",TNFR1 expression,TNFR1,did not affect the expression
same,EGFR expression,EGFR,did not affect the expression
same,cell viability,[1],negligible loss of cell viability
same,cleaved PARP,cleaved PARP,increase in cleaved PARP
